Assay results published in patent US4746659A, “Diastereomers of 10-alkyl-10-deazaminopterins and process for preparing the same” (priority 1985, dated 1988).
In brackets after ≈: the same amount, converted by molar mass. Entries after “also recorded” stand apart in the source; their conditions may differ. Read-outs that look alike come from different tables or passages of the source.

Experiments:
Streptococcus faecium [1] = details: cited from earlier work
Streptococcus faecium [2] = test: Growth inhibition of Streptococcus faecium (ATCC 8043); assay type: cell-based; details: for Minimum Inhibitory Concentration50 for growth inhibition, S. faecium: S. faecium ATCC 8043; for Minimum Inhibitory Concentration50 for growth inhibition, S. faecium / IC50: folate concentration = 1 ng/mL; for potency against S. faecium, comparison: comparison in words; for IC50: Enterococcus faecium, ATCC8043, read-out: Minimum Inhibitory Concentration50 for growth inhibition, S. faecium, S. faecium ATCC 8043
[3] = target: T1, dihydrofolate reductase derived from L1210 (Mus musculus, UniProt P00375); test: Inhibition of dihydrofolate reductase derived from L1210 cells; assay type: biochemical; details: comparison in words
T1 construct: dihydrofolate reductase derived from L1210; endogenous in cells; host or cells: L1210 cells
T1 sequence (P00375 1-187): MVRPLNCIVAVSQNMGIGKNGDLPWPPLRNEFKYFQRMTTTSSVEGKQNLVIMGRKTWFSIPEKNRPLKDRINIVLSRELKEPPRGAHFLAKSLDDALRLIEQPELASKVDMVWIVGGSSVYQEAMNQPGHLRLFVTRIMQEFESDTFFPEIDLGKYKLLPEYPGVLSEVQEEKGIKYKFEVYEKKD

L1210 cells = test: Growth inhibition of L1210 cells; assay type: cell-based; details: for IC50: average of 3-6 runs, standard error less than 15%, read-out: growth inhibn (minimum inhibitory concentration50); for inhibition of growth for L1210 cells, comparison between isomers: comparison in words
[4] = target: T2, transport protein of L1210 (Mus musculus, UniProt P41438); test: Transport (influx, efflux) in L1210 cells; assay type: cell-based; details: average of 3-6 runs, standard error less than 15%
T2 sequence (P41438 1-512): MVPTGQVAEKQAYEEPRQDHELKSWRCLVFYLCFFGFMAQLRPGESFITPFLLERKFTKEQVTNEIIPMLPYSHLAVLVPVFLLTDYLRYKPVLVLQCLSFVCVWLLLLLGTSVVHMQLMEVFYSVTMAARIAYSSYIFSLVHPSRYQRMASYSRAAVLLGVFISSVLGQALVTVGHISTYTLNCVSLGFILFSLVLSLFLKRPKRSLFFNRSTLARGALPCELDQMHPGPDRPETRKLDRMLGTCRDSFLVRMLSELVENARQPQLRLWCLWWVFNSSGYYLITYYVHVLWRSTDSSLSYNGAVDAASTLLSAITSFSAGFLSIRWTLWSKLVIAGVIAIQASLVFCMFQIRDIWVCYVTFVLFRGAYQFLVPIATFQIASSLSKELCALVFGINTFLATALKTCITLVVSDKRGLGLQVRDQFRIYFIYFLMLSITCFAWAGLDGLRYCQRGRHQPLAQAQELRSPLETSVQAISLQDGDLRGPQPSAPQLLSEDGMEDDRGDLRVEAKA

L1210 leukemia = test: Antitumor activity against L1210 leukemia in mice; assay type: in vivo, BD (2) F1 female mice; details: sc every 2 days times 5; for Mean Survival Time: untreated control 6.6 days
[5] = Various in vitro assays (general statement); details: Tables I, II and III
[6] = system: experimental murine tumor models; details: compared with methotrexate or 10-deazaminopterin; cited from earlier work
[7] = system: human mammary, lung and colon tumor xenografts; details: lung and colon tumor xenografts in nude mice; cited from earlier work
[8] = target: dihydrofolate reductase derived from L. casei (Lacticaseibacillus casei, UniProt P00381); test: DHFR inhibition, enzyme derived from L. casei; assay type: biochemical; details: relative to l,L-isomer
[9] = Mus musculus, L1210, L1210 cells
[10] = 9 mg/kg, listed as racemic mixture
[11] = 12 mg/kg, listed as racemic mixture
[12] = 18 mg/kg, listed as racemic mixture
[13] = 24 mg/kg, listed as racemic mixture

dihydrofolate reductase derived from L. casei, sequence (P00381 whole entry): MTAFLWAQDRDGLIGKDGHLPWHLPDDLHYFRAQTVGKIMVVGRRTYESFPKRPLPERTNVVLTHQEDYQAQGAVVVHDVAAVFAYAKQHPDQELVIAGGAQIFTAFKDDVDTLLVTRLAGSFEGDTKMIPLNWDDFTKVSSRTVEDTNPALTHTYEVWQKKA

For `Nc1nc2c(c(=O)[nH]1)NC(CCc1ccc(C(=O)O)cc1)CN2` (centres unmarked), the “growth-inhibitory activity against Streptococcus faecium” value (Streptococcus faecium [1]) is given as “Activity was greatly enhanced by reduction to the tetrahydro compound”.

For `CCC(CC1CNc2nc(N)nc(N)c2N1)c1ccc(C(=O)N[C@@H](CCC(=O)O)C(=O)O)cc1` (mixture of isomers) [5,6,7,8-tetrahydro racemic mixture], the “Minimum Inhibitory Concentration50 for growth inhibition, S. faecium” value (Streptococcus faecium [2]) was 2.6 ng/mL.

In the case of `CC(Cc1cnc2nc(N)nc(N)c2n1)c1ccc(C(=O)N[C@@H](CCC(=O)O)C(=O)O)cc1` (single isomer, unassigned) [d, L-10-methyl, 10-methyl-10-deazaminopterin], the “inhibition of dihydrofolate reductase derived from L1210, comparison between isomers” value [3] is reported as “not significantly different from one another or MTX”, the IC50 (L1210 cells; L1210 cells) is reported as 0.68 nM and the “inhibition of growth for L1210 cells, comparison between isomers” value (from here on “inhibition of growth for L1210 cells”) (L1210 cells) is reported as “not a significant difference”. The transport efflux k [4] was 0.258 min⁻¹.

With `CCC(Cc1cnc2nc(N)nc(N)c2n1)c1ccc(C(=O)N[C@@H](CCC(=O)O)C(=O)O)cc1` (single isomer, unassigned) [l, L-10-ethyl, l,L-10-ethyl-10-deazaminopterin] the IC50 (L1210 cells; [9]) was 1.52 nM, the “inhibition of growth for L1210 cells” value (L1210 cells) was “only one-third as potent as the d,L isomer” and the transport efflux k [4] was 0.249 min⁻¹. For the same compound, the “potency against S. faecium, comparison” value (Streptococcus faecium [2]) was “slightly more potent than the d,L-isomer”.

With `CC(Cc1cnc2nc(N)nc(N)c2n1)c1ccc(C(=O)N[C@@H](CCC(=O)O)C(=O)O)cc1` (single isomer, unassigned) [l, L-10-methyl, 10-methyl-10-deazaminopterin] the “inhibition of dihydrofolate reductase derived from L1210, comparison between isomers” value [3] was “not significantly different from one another or MTX”, the IC50 (L1210 cells; [9]) was 1.18 nM and the “inhibition of growth for L1210 cells” value (L1210 cells) was “not a significant difference”. It also gave a transport efflux k [4] of 0.267 min⁻¹.

For `CCC(CC1CNc2nc(N)nc(N)c2N1)c1ccc(C(=O)N[C@@H](CCC(=O)O)C(=O)O)cc1` (some centres unmarked) [5,6,7,8-tetrahydro d, L], the “Minimum Inhibitory Concentration50 for growth inhibition, S. faecium” value (Streptococcus faecium [2]) was 2.5 ng/mL and the “potency against S. faecium, comparison” value (Streptococcus faecium [2]) was “slightly more potent than the l,L isomer”.

With `CCC(CC1CNc2nc(N)nc(N)c2N1)c1ccc(C(=O)N[C@@H](CCC(=O)O)C(=O)O)cc1` (some centres unmarked) [5,6,7,8-tetrahydro l, L] the IC50 (Streptococcus faecium [2]) was 3.1 ng/mL (≈ 6.57 nM).

`CCC(CC1=Nc2c(N)nc(N)nc2NC1)c1ccc(C(=O)N[C@@H](CCC(=O)O)C(=O)O)cc1` (some centres unmarked) [7,8-dihydro l, L] showed an IC50 (Streptococcus faecium [2]) of 1.1 ng/mL (≈ 2.34 nM).

In the case of `Nc1nc2ncc(CCc3ccc(C(=O)O)cc3)nc2c(=O)[nH]1` [10-deazapteroic acid], the “growth-inhibitory activity against Streptococcus faecium” value (Streptococcus faecium [1]) is listed as “potent growth-inhibitory activity”.

In the case of `CCC(Cc1cnc2nc(N)nc(N)c2n1)c1ccc(C(=O)N[C@@H](CCC(=O)O)C(=O)O)cc1` (some centres unmarked) [10-ethyl-10-deazaminopterin], the 30-day survivors (L1210 leukemia; [10]) is reported as 0/10, the “Increased Life Span” value (L1210 leukemia; [10]) is reported as “+135%” and the Toxic deaths (L1210 leukemia; [10]) is reported as 0/10. For the same compound, the “Mean Survival Time” value (L1210 leukemia; [10]) was 15.5 ± 0.6 days, the 30-day survivors (L1210 leukemia; [11]) was 0/10 and the “Increased Life Span” value (L1210 leukemia; [11]) was “+153%”. The Toxic deaths (L1210 leukemia; [11]) was 0/10, the “Mean Survival Time” value (L1210 leukemia; [11]) was 16.7 ± 0.7 days and the 30-day survivors (L1210 leukemia; [12]) was 0/10. The “Increased Life Span” value (L1210 leukemia; [12]) was “+193%”, the Toxic deaths (L1210 leukemia; [12]) was 0/10 and the “Mean Survival Time” value (L1210 leukemia; [12]) was 19.3 ± 0.8 days. For the same compound, the 30-day survivors (L1210 leukemia; [13]) was 2/10, the “Increased Life Span” value (L1210 leukemia; [13]) was “> +207%” and the Toxic deaths (L1210 leukemia; [13]) was 2/10. For the same compound, the “Mean Survival Time” value (L1210 leukemia; [13]) was 20.3 ± 1.9 days, the 30-day survivors (L1210 leukemia; 32 mg/kg) was 0/10 and the “Increased Life Span” value (L1210 leukemia; 32 mg/kg) was “+67%”. The Toxic deaths (L1210 leukemia; 32 mg/kg) was 10/10, the “Mean Survival Time” value (L1210 leukemia; 32 mg/kg) was 16.0 ± 1.1 days and the “inhibitory activity in the various in vitro assays, comparison” value [5] was “intermediate between the values for the resolved d,L and l,L diasteromers”. For the same compound, the “effectiveness in experimental murine tumor models” value [6] was “considerably more effective than methotrexate or 10-deazaminopterin” and the “regression of human tumor xenografts” value [7] was “frank regressions”.

In the case of `CCC(Cc1cnc2nc(N)nc(N)c2n1)c1ccc(C(=O)N[C@@H](CCC(=O)O)C(=O)O)cc1` (stereo partly drawn) [d, L-10-ethyl, d,L-10-ethyl-10-deazaminopterin], the “inhibition of dihydrofolate reductase derived from L1210, comparison between isomers” value ([3]; listed as d,L isomer of 10-ethyl-10-deazaminopterin) is reported as “significantly more effective; also recorded: three-fold difference between l,L and d,L isomers”, the IC50 (L1210 cells; [9]) is reported as 0.43 nM and the “inhibition of growth for L1210 cells” value (L1210 cells) is reported as “significantly more effective”. For the same compound, the transport efflux k [4] was 0.253 min⁻¹, the “potency against the L. casei enzyme, d,L-isomer over l,L-isomer” value [8] was “approximately three-fold greater potency” and the 30-day survivors (L1210 leukemia; 9 mg/kg, listed as d, L) was 0/6. For the same compound, the “Increased Life Span” value (L1210 leukemia; 9 mg/kg, listed as d, L) was “+177%”, the Toxic deaths (L1210 leukemia; 9 mg/kg, listed as d, L) was 0/6 and the “Mean Survival Time” value (L1210 leukemia; 9 mg/kg, listed as d, L) was 18.3 ± 1.7 days. For the same compound, the 30-day survivors (L1210 leukemia; 12 mg/kg, listed as d, L) was 0/9, the “Increased Life Span” value (L1210 leukemia; 12 mg/kg, listed as d, L) was “+199%” and the Toxic deaths (L1210 leukemia; 12 mg/kg, listed as d, L) was 3/9. For the same compound, the “Mean Survival Time” value (L1210 leukemia; 12 mg/kg, listed as d, L) was 19.8 ± 2.3 days, the 30-day survivors (L1210 leukemia; 18 mg/kg, listed as d, L) was 1/9 and the “Increased Life Span” value (L1210 leukemia; 18 mg/kg, listed as d, L) was “> +165%”. For the same compound, the Toxic deaths (L1210 leukemia; 18 mg/kg, listed as d, L) was 5/9, the “Mean Survival Time” value (L1210 leukemia; 18 mg/kg, listed as d, L) was 17.5 ± 1.5 days and the 30-day survivors (L1210 leukemia; 24 mg/kg, listed as d, L) was 0/3. For the same compound, the “Increased Life Span” value (L1210 leukemia; 24 mg/kg, listed as d, L) was “+55%”, the Toxic deaths (L1210 leukemia; 24 mg/kg, listed as d, L) was 3/3 and the “Mean Survival Time” value (L1210 leukemia; 24 mg/kg, listed as d, L) was 10.0 ± 0 days.

With `CN(Cc1cnc2nc(N)nc(N)c2n1)c1ccc(C(=O)N[C@@H](CCC(=O)O)C(=O)O)cc1` [methotrexate, reference compound] the IC50 (L1210 cells; L1210 cells) was 2.48 nM, the transport efflux k [4] was 0.213 min⁻¹ and the 30-day survivors (L1210 leukemia; 9 mg/kg) was 0/10. For the same compound, the “Increased Life Span” value (L1210 leukemia; 9 mg/kg) was “+137%”, the Toxic deaths (L1210 leukemia; 9 mg/kg) was 0/10 and the “Mean Survival Time” value (L1210 leukemia; 9 mg/kg) was 15.7 ± 0.4 days. For the same compound, the 30-day survivors (L1210 leukemia; 12 mg/kg) was 0/10, the Toxic deaths (L1210 leukemia; 12 mg/kg) was 1/10 and the “Mean Survival Time” value (L1210 leukemia; 12 mg/kg) was 16.3 ± 0.7 days. The 30-day survivors (L1210 leukemia; 18 mg/kg) was 0/10, the “Increased Life Span” value (L1210 leukemia; 18 mg/kg) was “+119%” and the Toxic deaths (L1210 leukemia; 18 mg/kg) was 6/10. The “Mean Survival Time” value (L1210 leukemia; 18 mg/kg) was 14.5 ± 1.6 days, the 30-day survivors (L1210 leukemia; 24 mg/kg) was 0/10 and the “Increased Life Span” value (L1210 leukemia; 24 mg/kg) was “+46%”. The Toxic deaths (L1210 leukemia; 24 mg/kg) was 10/10 and the “Mean Survival Time” value (L1210 leukemia; 24 mg/kg) was 9.6 ± 1.1 days.
